In patent US20120034165A1, “IMAGING THE CENTRAL NERVOUS SYSTEM WITH PURINERGIC P2X7 RECEPTOR BINDING AGENTS” (priority 2009, published 2012):

Molecular target: T1, P2X7 receptor (Homo sapiens, UniProt Q99572)
T1 construct: expressed in transfected cells; host or cells: HEK.293 cells, transient transfection with Lipofectamine LTX
T1 sequence (Q99572 1-595): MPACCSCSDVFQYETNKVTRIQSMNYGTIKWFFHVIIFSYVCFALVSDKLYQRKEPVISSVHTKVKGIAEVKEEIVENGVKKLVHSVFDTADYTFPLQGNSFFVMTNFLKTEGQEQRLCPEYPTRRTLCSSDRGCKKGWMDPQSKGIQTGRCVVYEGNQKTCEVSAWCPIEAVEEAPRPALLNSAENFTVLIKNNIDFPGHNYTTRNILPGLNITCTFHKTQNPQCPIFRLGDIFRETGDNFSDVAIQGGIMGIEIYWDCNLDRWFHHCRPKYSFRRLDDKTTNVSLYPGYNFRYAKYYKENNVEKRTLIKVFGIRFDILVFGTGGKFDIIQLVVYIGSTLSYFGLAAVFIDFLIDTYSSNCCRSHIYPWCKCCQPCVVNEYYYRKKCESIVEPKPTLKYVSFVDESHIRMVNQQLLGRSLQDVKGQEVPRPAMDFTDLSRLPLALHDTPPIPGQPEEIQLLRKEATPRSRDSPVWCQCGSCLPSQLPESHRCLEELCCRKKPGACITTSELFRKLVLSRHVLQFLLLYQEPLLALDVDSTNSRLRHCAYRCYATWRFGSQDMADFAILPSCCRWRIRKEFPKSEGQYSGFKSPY
Experiment: Pore-forming (Yo Pro-1 dye uptake) assay in P2X7 transfected HEK.293 cells, Bz-ATP agonist
Format: cell-based
Settings: Bz-ATP 30 μM, Yo Pro-1 1 μM, triplicate
Excerpt: A non-radioactive analogue of the Imaging Agent illustrated in Table I was screened in a P2X7 receptor functional assay. This assay is described in Example 3 and is based upon the ability of the P2X7 receptor to form a non-selective pore in P2X7 transfected HEK.293 cells upon activation with an agonist, thereby allowing dye to permeate the cells. The non selective P2X channel antagonist used as a reference inhibitor for the evaluation of the non-radioactive compound of the invention was pyridoxal-phosphate-6-azophenyl-2′,4′-disulfonate (PPADS), and the results of the assay are provided in Table I above.
The assay method used was based on the ability of the DNA binding dye, Yo Pro-1 (quinolinium, 4[3-methyl-2(3H)-benzoxazolylidene)methyl]-1-[3-(trimethyl-ammonio)propyl]-dioxide) to enter through the dilated or “large pore form” of the P2X7 receptor and to bind to intracellular DNA/RNA whereupon it increases fluorescence intensity. Yo Pro-1 was therefore used to quantify inhibition of P2X7 function. This assay was based on the methods published by Michel et al., (B.J. Pharmacol 1998; 125: 1194-1201).
Initially, HEK.293 cells were transiently transfected using LipofectamineTMLTX (Invitrogen) for 72 hrs with P2X7 cDNA. 48 hours prior to use the cells were seeded into poly-D-lysine coated 96-well black-walled, clear bottomed plates, at a density of 30,000 cells/well. Stock solutions of test compound were prepared at a concentration of 40 mM in 100% DMSO.
Following the 48 hour incubation the culture medium was removed from the transfected cells, the cells were washed once and placed in pre-warmed sucrose assay buffer (Sucrose: 280 mM, KCL 5 mM, CaCl2: 0.5 mM, glucose: 10 mM, HEPES: 10 mM, N-methyl-D-glucamine: 10 mM; pH7.4). […] The fluorescence was then read at 485 nm excitation and 530 nm emission.
The non-selective P2X channel antagonist pyrdoxalphosphate-6-azophenyl-2′4′-disulphonic acid (PPADS) was used as a reference inhibitor in the assay. […] For each compound data set, a percentage inhibition value was calculated based on the three assay points generated.

Row | % inhibition (test compound at 100 μM (so in the source)) [%] | SMILES | % inhibition (test compound at 10 μM) [%]
1 | – | Cc1nc(N=Nc2ccc(S(=O)(=O)O)cc2S(=O)(=O)O)c(COP(=O)(O)O)c(C=O)c1O [PPADS, pyridoxal-phosphate-6-azophenyl-2′,4′-disulfonate, reference compound] | 70
2 | 68.0 | Oc1ccccc1CNc1ncnn1-c1cccc(Cl)c1Cl [imaging agent 1] | 77.0
